From US7714146B2, “Azulene-oxindole compounds as multiple-kinase inhibitors and useful as anticancer agents” (Industrial Technology Research Institute, priority 2006, dated 2010)

How the values were obtained:
Assay type in all cases: biochemical
[1] = biological target: T1, human c-KIT (Thr544-Val976) (Homo sapiens, UniProt P10721); experiment: c-KIT kinase assay (HTScan kit, DELFIA); conditions: for inhibition at 0.1 µM: read-out: c-KIT 0.1 μM, % of inhibition relative to control; for inhibition at 1 µM: read-out: c-KIT 1 μM, % of inhibition relative to control
T1 construct: human c-KIT (Thr544-Val976); GST (N); purchased Cell Signaling Technology; host or cells: baculovirus expression system
Procedure, shortened: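 GST-tagged human c-KIT (Thr544-Val976) from baculovirus, with 1.5 μM biotinylated KDR Tyr-996 peptide and 20 μM ATP in HEPES pH 7.5 buffer containing Mg2+/Mn2+ and 1% DMSO. Enzyme and compound pre-incubated 5 min, reaction run 30 min at room temperature; phosphorylation detected by DELFIA.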

[2] = biological target: T2, human VEGFR-2 (Val789-Val1356) (Homo sapiens, UniProt P35968); experiment: KDR kinase assay (HTScan VEGFR-2 kit, DELFIA); conditions: for inhibition at 1 µM: read-out: KDR 1 μM, % of inhibition relative to control; for inhibition at 0.1 µM: read-out: KDR 0.1 μM, % of inhibition relative to control
T2 construct: human VEGFR-2 (Val789-Val1356); GST (N); purchased Cell Signaling Technology; host or cells: baculovirus expression system
Procedure, shortened: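 GST-tagged human VEGFR-2 (Val789-Val1356) from baculovirus, with 1.5 μM biotinylated gastrin precursor peptide and 20 μM ATP in HEPES pH 7.5, Mg/Mn, vanadate, DTT, 1% DMSO. Pre-incubation 5 min, reaction 30 min at room temperature; phosphorylation read by DELFIA.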

[3] = biological target: T3, human PDGFRβ (Gln557-Leu1106) (Homo sapiens, UniProt P09619); experiment: PDGFR-beta kinase assay (HTScan kit, DELFIA); conditions: compound at 10 μM
T3 construct: human PDGFRβ (Gln557-Leu1106); GST (N); purchased Cell Signaling Technology; host or cells: baculovirus expression system
Method: (§1) Compounds 1-100 were treated for their efficacy in inhibiting activities of FLT-3, c-KIT, KDR/Flk-1, PDGFR-beta, EGFR, and PKC kinases by biochemical DELFIA (Dissociation Enhanced Lanthanide FIA) assays according to the procedure described below. The assays were conducted by, Division of Cell Engineering, Biomedical Engineering Research Laboratories, Industrial Technology Research Institute, Bldg. 53, 195, sec. 4, Chung Hsing Rd. Chutung, Hsinchu, Taiwan 310, R.O.C.
The PDGFR-beta assay was conducted following the protocol described in Protocol for HTScan® PDGFR-beta Kinase Assay Kit (Cell Signaling Technology®). The assay was conducted under the following conditions: PDGFR-beta source: The GST-Kinase fusion protein was produced using a baculovirus expression system with a construct expressing human PDGFRβ (Gln557-Leu1106) (GenBank Accession No. NM_002609) with an amino-terminal GST tag, substrate: This biotinylated peptide contains the residues surrounding Tyr-589 of FLT-3, vehicle: 1% DMSO, pre-incubation time/temperature: 5 minutes at room temperature, incubation time/temperature: 30 minutes at room temperature, incubation buffer: 60 mM HEPES pH 7.5, 5 mM MgCl2, 5 mM MnCl2, 3 μM Na3VO4, 1.25 mM DTT, 20 μM ATP, and quantitative method: DELFIA® Assay.

[4] = biological target: T4, human FLT-3 (Arg571-Ser993) (Homo sapiens, UniProt P36888); experiment: FLT-3 kinase assay (HTScan kit, DELFIA); conditions: for inhibition at 1 µM: read-out: FLT-3 1 μM, % of inhibition relative to control; for inhibition at 0.1 µM: read-out: FLT-3 0.1 μM, % of inhibition relative to control
T4 construct: human FLT-3 (Arg571-Ser993); GST (N); purchased Cell Signaling Technology; host or cells: baculovirus expression system
T4 sequence (P36888 571-993): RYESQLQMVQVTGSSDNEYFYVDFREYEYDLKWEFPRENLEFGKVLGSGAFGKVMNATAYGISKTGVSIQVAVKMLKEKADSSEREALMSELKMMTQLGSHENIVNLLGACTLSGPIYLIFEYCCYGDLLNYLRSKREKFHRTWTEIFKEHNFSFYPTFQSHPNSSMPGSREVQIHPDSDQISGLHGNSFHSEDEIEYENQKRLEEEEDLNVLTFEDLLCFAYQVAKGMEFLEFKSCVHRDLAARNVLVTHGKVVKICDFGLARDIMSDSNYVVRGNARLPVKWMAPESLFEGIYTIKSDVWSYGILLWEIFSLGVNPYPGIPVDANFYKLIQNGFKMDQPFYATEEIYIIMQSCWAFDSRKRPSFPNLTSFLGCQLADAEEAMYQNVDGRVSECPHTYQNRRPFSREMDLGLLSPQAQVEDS
Procedure, shortened: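 GST-tagged human FLT-3 (Arg571-Ser993, baculovirus-expressed) phosphorylated 1.5 μM biotinylated gastrin precursor peptide with 20 μM ATP in HEPES pH 7.5, Mg/Mn buffer and 1% DMSO. After 5 min preincubation, the reaction ran 30 min at room temperature. Phosphorylation was read by DELFIA.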

[5] = biological target: T5, human EGFR (His672-Ala1210) (Homo sapiens, UniProt P00533); experiment: EGFR kinase assay (HTScan kit, DELFIA)
T5 construct: human EGFR (His672-Ala1210); GST (N); purchased Cell Signaling Technology; host or cells: baculovirus expression system
Method: as §1
The EGFR assay was conducted following the protocol described in Protocol for HTScan® EGFR Kinase Assay Kit (Cell Signaling Technology®). The assay was conducted under the following conditions: EGFR source: The GST-kinase fusion protein was produced using a baculovirus expression system with a construct expressing human EGFR (His672-Ala1210) (GenBank Accession No. NM_005228) with an amino-terminal GST tag, substrate: 1.5 μM This biotinylated peptide contains the residues surrounding Tyr-66 of PTP1B, vehicle: 1% DMSO, pre-incubation time/temperature: 5 minutes at room temperature, incubation time/temperature: 30 minutes at room temperature, incubation buffer: 60 mM HEPES pH 7.5, 5 mM MgCl2, 5 mM MnCl2, 3 μM Na3VO4, 1.25 mM DTT, 20 μM ATP, and quantitative method: DELFIA® Assay.

T1 sequence (P10721 544-976): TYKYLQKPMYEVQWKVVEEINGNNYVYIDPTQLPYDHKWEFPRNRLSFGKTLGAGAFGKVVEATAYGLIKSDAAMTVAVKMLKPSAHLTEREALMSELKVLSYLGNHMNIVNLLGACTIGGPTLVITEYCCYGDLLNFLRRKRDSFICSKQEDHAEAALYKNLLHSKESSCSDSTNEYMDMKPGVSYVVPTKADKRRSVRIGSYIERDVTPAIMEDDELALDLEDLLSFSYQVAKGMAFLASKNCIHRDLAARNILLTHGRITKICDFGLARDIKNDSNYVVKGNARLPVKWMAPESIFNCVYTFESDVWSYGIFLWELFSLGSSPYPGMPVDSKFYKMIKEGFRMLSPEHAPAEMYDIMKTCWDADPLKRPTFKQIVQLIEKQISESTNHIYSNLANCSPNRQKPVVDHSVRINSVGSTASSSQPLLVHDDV
T3 sequence (P09619 557-1106): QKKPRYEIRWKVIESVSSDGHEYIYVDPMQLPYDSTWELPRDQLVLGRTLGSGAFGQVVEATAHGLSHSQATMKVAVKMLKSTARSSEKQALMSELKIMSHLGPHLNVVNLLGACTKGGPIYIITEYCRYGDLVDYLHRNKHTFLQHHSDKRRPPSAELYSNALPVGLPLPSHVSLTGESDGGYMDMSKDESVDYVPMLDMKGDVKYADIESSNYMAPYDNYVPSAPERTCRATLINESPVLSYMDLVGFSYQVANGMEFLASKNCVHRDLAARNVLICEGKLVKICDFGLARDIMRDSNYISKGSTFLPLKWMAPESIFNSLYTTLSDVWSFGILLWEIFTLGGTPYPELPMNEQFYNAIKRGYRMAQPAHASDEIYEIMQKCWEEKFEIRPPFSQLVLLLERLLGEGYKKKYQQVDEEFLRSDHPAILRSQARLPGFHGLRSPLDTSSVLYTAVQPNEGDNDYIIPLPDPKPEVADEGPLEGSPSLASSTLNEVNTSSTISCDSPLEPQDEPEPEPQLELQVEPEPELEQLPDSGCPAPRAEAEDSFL
T5 sequence (P00533 672-1210): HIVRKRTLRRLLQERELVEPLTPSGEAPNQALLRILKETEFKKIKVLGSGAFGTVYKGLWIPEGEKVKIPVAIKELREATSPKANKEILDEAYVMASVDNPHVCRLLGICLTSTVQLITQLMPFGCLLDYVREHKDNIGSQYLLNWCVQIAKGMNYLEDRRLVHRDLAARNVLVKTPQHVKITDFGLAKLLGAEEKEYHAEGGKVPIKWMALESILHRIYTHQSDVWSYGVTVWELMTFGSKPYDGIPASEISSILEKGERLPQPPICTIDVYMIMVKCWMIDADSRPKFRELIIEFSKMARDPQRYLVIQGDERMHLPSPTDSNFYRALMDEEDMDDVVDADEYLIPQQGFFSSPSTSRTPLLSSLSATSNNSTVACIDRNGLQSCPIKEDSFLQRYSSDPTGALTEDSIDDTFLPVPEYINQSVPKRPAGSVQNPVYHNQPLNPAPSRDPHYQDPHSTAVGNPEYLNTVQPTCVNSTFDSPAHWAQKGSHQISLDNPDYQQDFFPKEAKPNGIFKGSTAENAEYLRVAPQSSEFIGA
T2 sequence (P35968 789-1356): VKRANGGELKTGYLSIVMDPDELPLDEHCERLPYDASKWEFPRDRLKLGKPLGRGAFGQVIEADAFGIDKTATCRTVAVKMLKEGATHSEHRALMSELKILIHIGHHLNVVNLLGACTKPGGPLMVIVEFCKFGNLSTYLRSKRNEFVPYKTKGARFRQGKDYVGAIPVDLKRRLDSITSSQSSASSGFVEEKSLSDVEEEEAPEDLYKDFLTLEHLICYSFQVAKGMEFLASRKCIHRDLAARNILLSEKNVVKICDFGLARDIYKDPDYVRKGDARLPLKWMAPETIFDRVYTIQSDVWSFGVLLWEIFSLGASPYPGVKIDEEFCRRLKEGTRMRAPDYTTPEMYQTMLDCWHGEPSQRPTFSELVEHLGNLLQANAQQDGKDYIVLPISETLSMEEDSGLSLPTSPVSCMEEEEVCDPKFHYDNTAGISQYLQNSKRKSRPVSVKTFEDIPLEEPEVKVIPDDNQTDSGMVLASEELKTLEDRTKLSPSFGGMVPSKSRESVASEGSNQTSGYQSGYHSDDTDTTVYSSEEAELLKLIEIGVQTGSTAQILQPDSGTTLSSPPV

SMILES | inhibition at 0.1 µM ([1]; compound at 0.1 μM) [%] | inhibition at 1 µM ([1]; compound at 1 μM) [%] | inhibition at 1 µM ([2]; compound at 1 μM) [%] | PDGFR-β 10 μM, % of inhibition relative to control [3] [%] | inhibition at 1 µM ([4]; compound at 1 μM) [%] | inhibition at 0.1 µM ([2]; compound at 0.1 μM) [%] | inhibition at 0.1 µM ([4]; compound at 0.1 μM) [%] | c-KIT 0.1 μM, % of inhibition relative to control ([1]; compound at 0.1 μM) [%] | c-KIT 1 μM, % of inhibition relative to control ([1]; compound at 1 μM) [%] | FLT-3 0.1 μM, % of inhibition relative to control ([4]; compound at 0.1 μM) [%] | FLT-3 1 μM, % of inhibition relative to control ([4]; compound at 1 μM) [%] | KDR 0.1 μM, % of inhibition relative to control ([2]; compound at 0.1 μM) [%] | KDR 1 μM, % of inhibition relative to control ([2]; compound at 1 μM) [%] | EGFR 0.1 μM, % of inhibition relative to control ([5]; compound at 0.1 μM) [%] | EGFR 1 μM, % of inhibition relative to control ([5]; compound at 1 μM) [%] | inhibition at 1 µM ([5]; compound at 1 μM, read-out: EGFR 1 μM, % of inhibition relative to control) [%]
O=C1C(=Cc2ccc3cccccc2-3)c2ccccc2N1Cc1ccccc1 [Compound 2, 3-Azulen-1-ylmethylene-1-benzyl-1,3-dihydro-indol-2-one] | 24.7 | 24.7 | 10.3 | 3.6 | – | – | – | – | – | – | – | – | – | – | – | –
O=C1/C(=C/c2ccc3cccccc2-3)c2ccccc2N1C(c1ccccc1)c1ccccc1 [Compound 3, 3-Azulen-1-ylmethylene-1-benzhydryl-1,3-dihydro-indol-2-one] | – | – | – | 14.4 | 5.1 | – | – | – | – | – | – | – | – | – | – | –
O=C1Nc2ccc(Br)cc2/C1=C/c1ccc2cccccc1-2 [Compound 6, 3-Azulen-1-ylmethylene-5-bromo-1,3-dihydro-indol-2-one] | 36.6 | 36.6 | 29.7 | 35.5 | – | 19.6 | – | – | – | – | – | – | – | – | – | –
O=C1Nc2ccc(Br)cc2/C1=C\c1ccc2cccccc1-2 [Compound 7, 3-Azulen-1-ylmethylene-5-bromo-1,3-dihydro-indol-2-one] | 30.9 | 30.9 | 28.8 | 4.7 | 40.1 | 29.5 | 17.8 | – | – | – | – | – | – | – | – | –
O=C1Nc2ccc([N+](=O)[O-])cc2/C1=C/c1ccc2cccccc1-2 [Compound 8, 3-Azulen-1-ylmethylene-5-nitro-1,3-dihydro-indol-2-one] | 36.4 | 36.4 | 55.9 | 16.2 | 11.5 | 26.4 | – | – | – | – | – | – | – | – | – | –
Cc1cc(C)c2ccc(/C=C3/C(=O)Nc4ccccc43)c-2c(C)c1 [Compound 9, 3-(4,6,8-Trimethyl-azulen-1-ylmethylene)-1,3-dihydro-indol-2-one] | 11.5 | 11.5 | 33.4 | 14.7 | 3.8 | 12.3 | – | – | – | – | – | – | – | – | – | –
Cc1cc(C)c2ccc(/C=C3/C(=O)N(Cc4ccccc4)c4ccccc43)c-2c(C)c1 [Compound 10, 1-Benzyl-3-(4,6,8-trimethyl-azulen-1-ylmethylene)-1,3-dihydro-indol-2-one] | 8.4 | 8.4 | 38.5 | 18.6 | – | 22.1 | – | – | – | – | – | – | – | – | – | –
Cc1cc(/C=C2/C(=O)Nc3ccccc32)c2c(C)ccc(C(C)C)cc1-2 [Compound 12, 3-(5-Isopropyl-3,8-dimethyl-azulen-1-ylmethylene)-1,3-dihydro-indol-2-one] | 14.7 | 14.7 | 34.3 | 7.3 | – | 17.3 | – | – | – | – | – | – | – | – | – | –
COC(=O)c1cc(/C=C2\C(=O)Nc3ccccc32)c2cccccc1-2 [Compound 16, 3-(2-Oxo-1,2-dihydro-indol-3-ylidenemethyl)-azulene-1-carboxylic acid methyl ester] | 2.8 | 2.8 | 20.1 | 3.6 | – | 15.4 | 7.7 | – | – | – | – | – | – | – | – | –

Next, values leading:

inhibition at 0.1 µM ([1]; compound at 0.1 μM) [%] | inhibition at 1 µM ([1]; compound at 1 μM) [%] | inhibition at 1 µM ([2]; compound at 1 μM) [%] | PDGFR-β 10 μM, % of inhibition relative to control [3] [%] | inhibition at 1 µM ([4]; compound at 1 μM) [%] | inhibition at 0.1 µM ([2]; compound at 0.1 μM) [%] | inhibition at 0.1 µM ([4]; compound at 0.1 μM) [%] | c-KIT 0.1 μM, % of inhibition relative to control ([1]; compound at 0.1 μM) [%] | c-KIT 1 μM, % of inhibition relative to control ([1]; compound at 1 μM) [%] | FLT-3 0.1 μM, % of inhibition relative to control ([4]; compound at 0.1 μM) [%] | FLT-3 1 μM, % of inhibition relative to control ([4]; compound at 1 μM) [%] | KDR 0.1 μM, % of inhibition relative to control ([2]; compound at 0.1 μM) [%] | KDR 1 μM, % of inhibition relative to control ([2]; compound at 1 μM) [%] | EGFR 0.1 μM, % of inhibition relative to control ([5]; compound at 0.1 μM) [%] | EGFR 1 μM, % of inhibition relative to control ([5]; compound at 1 μM) [%] | inhibition at 1 µM ([5]; compound at 1 μM, read-out: EGFR 1 μM, % of inhibition relative to control) [%] | SMILES
16.6 | 16.6 | 40.6 | 5.3 | 30.3 | 15.6 | 28.8 | – | – | – | – | – | – | – | – | – | O=C1Nc2ccc(Cl)cc2/C1=C\c1ccc2cccccc1-2 [Compound 22, 3-Azulen-1-ylmethylene-5-chloro-1,3-dihydro-indol-2-one]
60.4 | 60.4 | 59.1 | 7.9 | 34.7 | 33.9 | 5 | – | – | – | – | – | – | – | – | – | O=C1Nc2ccc(F)cc2/C1=C/c1ccc2cccccc1-2 [Compound 26, 3-Azulen-1-ylmethylene-5-fluoro-1,3-dihydro-indol-2-one]
25.7 | 25.7 | 39.5 | 5.3 | 30.9 | 25.9 | 8.6 | – | – | – | – | – | – | – | – | – | O=C1Nc2ccccc2/C1=C\c1c2cccccc-2[nH]c1=O [Compound 27, 3-(2-Oxo-1,2-dihydro-indol-3-ylidenemethyl)-1H-cyclohepta[b]pyrrol-2-one]
– | – | – | – | – | – | – | 19.5 | 19.5 | 4.0 | 29.6 | 22.3 | 25.8 | 7.9 | 10.4 | – | CN(C)S(=O)(=O)c1ccc2c(c1)/C(=C/c1ccc3cccccc1-3)C(=O)N2 [Compound 50, (3Z)-3-(((3aZ,5Z,7Z)-azulen-1-yl)methylene)-5-(N,N-dimethylsulfonyl)indolin-2-one]
73.9 | 73.9 | 26.4 | – | 82.6 | – | 38.4 | – | – | – | – | – | – | – | – | 11.5 | O=C1Nc2ccc(F)cc2/C1=C\c1cc(Br)c2cccccc1-2 [Compound 51, 3-(3-Bromo-azulen-1-ylmethylene)-5-fluoro-1,3-dihydro-indol-2-one]
